Data taken from patent publication US20250084039A1, “4-SUBSTITUTED AMINOISOQUINOLINE DERIVATIVES” (Purdue Research Foundation, priority 2016, published 2025).
Where two headings read alike, the source gives them in different places.

Legend:
MV4-11 = test: IC50 proliferation assay (Alamar Blue, 72 h); type: cell-based; settings: Homo sapiens, MV4-11, 72 h; read-out: IC50 (proliferation inhibition) Cell line - MV4-11
Method in brief: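 Cells seeded ~18 h before treatment with semi-serial compound dilutions made in DMSO then growth medium. After 72 h exposure, Alamar Blue added and read following 4 h further at 37 °C; IC50 for proliferation inhibition.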

K562 = test: IC50 proliferation assay (Alamar Blue, 72 h); type: cell-based; settings: Homo sapiens
c-kit = c-kit (Homo sapiens (Human), UniProt P10721); test: Reaction Biology HotSpot kinase assay; type: biochemical; settings: 500 nM compound, 100 μM radiolabeled ATP
Method in brief: (§1)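 Phosphotransfer from [γ-33P]ATP was quantified after filter binding on P81 paper. Conditions: 20 mM HEPES pH 7.5, 10 mM MgCl2, 0.1 mM Na3VO4, 2 mM DTT, 0.02 mg/mL BSA; ATP 100 μM final; 2 h at room temperature. Compound was dosed at 500 nM.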

HIPK1 = HIPK1 (Homo sapiens (Human), UniProt Q86Z02); test: Reaction Biology HotSpot kinase assay; type: biochemical; settings: 500 nM compound; read-out: Percentage kinase inhibition HIPK1
Method in brief: (§2)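 Single-point screen, 500 nM cpd; 20 min preinc with enzyme/substrate; start with ATP + 33P-ATP, 100 μM final; 2 h RT; P81 filter capture. Buffer: 20 mM HEPES pH 7.5, 10 mM MgCl2, 1 mM EGTA, 0.02% Brij35, 1% DMSO. Data as % activity vs DMSO.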

CDK1/cyclin E = CDK1/cyclin E (Homo sapiens (Human), UniProt P06493); test: Reaction Biology HotSpot kinase assay; type: biochemical; settings: 500 nM compound; read-out: Percentage kinase inhibition CDK1/cyclin E
Method in brief: as §2

BRK = BRK (Homo sapiens (Human), UniProt Q13882); test: Reaction Biology HotSpot kinase assay; type: biochemical; settings: 500 nM compound; read-out: Percentage kinase inhibition BRK
Method in brief: as §1

ERBB4/HER4 = ERBB4/HER4 (Homo sapiens (Human), UniProt Q15303); test: Reaction Biology HotSpot kinase assay; type: biochemical; settings: 500 nM compound; read-out: Percentage kinase inhibition ERBB4/HER4
Method in brief: as §2

FER = FER (Homo sapiens (Human), UniProt P16591); test: Reaction Biology HotSpot kinase assay; type: biochemical; settings: 500 nM compound; read-out: Percentage kinase inhibition FER
Method in brief: as §2

CDK9/cyclin K = CDK9/cyclin K (Homo sapiens (Human), UniProt P50750); test: Reaction Biology HotSpot kinase assay; type: biochemical; settings: 500 nM compound; read-out: Percentage kinase inhibition CDK9/cyclin K
Method in brief: as §2

JNK1 = JNK1 (Homo sapiens (Human), UniProt P45983); test: Reaction Biology HotSpot kinase assay; type: biochemical; settings: 500 nM compound; read-out: Percentage kinase inhibition JNK1
Method in brief: as §2

P38a/MAPK14 = P38a/MAPK14 (Homo sapiens (Human), UniProt Q16539); test: Reaction Biology HotSpot kinase assay; type: biochemical; settings: 500 nM compound; read-out: Percentage kinase inhibition P38a/MAPK14
Method in brief: as §2

HCK = HCK (Homo sapiens (Human), UniProt P08631); test: Reaction Biology HotSpot kinase assay; type: biochemical; settings: 500 nM compound; read-out: Percentage kinase inhibition HCK
Method in brief: as §2

IGF1R = IGF1R (Homo sapiens (Human), UniProt P08069); test: Reaction Biology HotSpot kinase assay; type: biochemical; settings: 500 nM compound; read-out: Percentage kinase inhibition IGF1R
Method in brief: as §2

MELK = MELK (Homo sapiens (Human), UniProt Q14680); test: Reaction Biology HotSpot kinase assay; type: biochemical; settings: 500 nM compound; read-out: Percentage kinase inhibition MELK
Method in brief: as §2

MST4 = MST4 (Homo sapiens (Human), UniProt Q9P289); test: Reaction Biology HotSpot kinase assay; type: biochemical; settings: 500 nM compound; read-out: Percentage kinase inhibition MST4
Method in brief: as §2

CDK9/cyclin T1 = CDK9/cyclin T1 (Homo sapiens (Human), UniProt P50750); test: Reaction Biology HotSpot kinase assay; type: biochemical; settings: 500 nM compound; read-out: Percentage kinase inhibition CDK9/cyclin T1
Method in brief: as §2

AKT2 = AKT2 (Homo sapiens (Human), UniProt P31751); test: Reaction Biology HotSpot kinase assay; type: biochemical; settings: 500 nM compound; read-out: Percentage kinase inhibition AKT2
Method in brief: as §2

MEK1 = MEK1 (Homo sapiens (Human), UniProt Q02750); test: Reaction Biology HotSpot kinase assay; type: biochemical; settings: 500 nM compound; read-out: Percentage kinase inhibition MEK1
Method in brief: as §2

SYK = SYK (Homo sapiens (Human), UniProt P43405); test: Reaction Biology HotSpot kinase assay; type: biochemical; settings: 500 nM compound; read-out: Percentage kinase inhibition SYK
Method in brief: as §2

FYN = FYN (Homo sapiens (Human), UniProt P06241); test: Reaction Biology HotSpot kinase assay; type: biochemical; settings: 500 nM compound; read-out: Percentage kinase inhibition FYN
Method in brief: as §2

CDK6/cyclin D3 = CDK6/cyclin D3 (Homo sapiens (Human), UniProt Q00534); test: Reaction Biology HotSpot kinase assay; type: biochemical; settings: 500 nM compound; read-out: Percentage kinase inhibition CDK6/cyclin D3
Method in brief: as §2

CDK4/cyclin D1 = CDK4/cyclin D1 (Homo sapiens (Human), UniProt P11802); test: Reaction Biology HotSpot kinase assay; type: biochemical; settings: 500 nM compound; read-out: Percentage kinase inhibition CDK4/cyclin D1
Method in brief: as §1

RSK2 = RSK2 (Homo sapiens (Human), UniProt P51812); test: Reaction Biology HotSpot kinase assay; type: biochemical; settings: 500 nM compound; read-out: Percentage kinase inhibition RSK2
Method in brief: as §2

RON/MST1R = RON/MST1R (Homo sapiens (Human), UniProt Q04912); test: Reaction Biology HotSpot kinase assay; type: biochemical; settings: 500 nM compound; read-out: Percentage kinase inhibition RON/MST1R
Method in brief: as §2

CDK2/cyclin A = CDK2/cyclin A (Homo sapiens (Human), UniProt P24941); test: Reaction Biology HotSpot kinase assay; type: biochemical; settings: 500 nM compound; read-out: Percentage kinase inhibition CDK2/cyclin A
Method in brief: as §1

ITK = ITK (Homo sapiens (Human), UniProt Q08881); test: Reaction Biology HotSpot kinase assay; type: biochemical; settings: 500 nM compound; read-out: Percentage kinase inhibition ITK
Method in brief: as §2

[1] = K562, 72 h, read-out: IC50 (proliferation inhibition) Cell line - K562
[2] = K562, Table 18, read-out: Inhibition of proliferation of K562 cell lines (CML)

BRK, sequence (Q13882 whole entry): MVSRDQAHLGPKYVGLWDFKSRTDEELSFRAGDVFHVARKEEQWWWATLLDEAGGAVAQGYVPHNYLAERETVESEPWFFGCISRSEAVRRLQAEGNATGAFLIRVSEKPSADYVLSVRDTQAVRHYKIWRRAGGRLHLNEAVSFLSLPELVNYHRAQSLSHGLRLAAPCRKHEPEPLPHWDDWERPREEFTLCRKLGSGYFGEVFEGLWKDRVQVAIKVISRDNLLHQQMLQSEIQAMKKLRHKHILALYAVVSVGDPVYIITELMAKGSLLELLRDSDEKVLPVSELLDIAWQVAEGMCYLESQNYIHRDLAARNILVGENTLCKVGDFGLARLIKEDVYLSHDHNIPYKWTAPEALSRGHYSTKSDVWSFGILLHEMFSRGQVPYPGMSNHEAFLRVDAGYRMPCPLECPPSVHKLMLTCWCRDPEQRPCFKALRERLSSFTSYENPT
RON/MST1R, sequence (Q04912 25-1400): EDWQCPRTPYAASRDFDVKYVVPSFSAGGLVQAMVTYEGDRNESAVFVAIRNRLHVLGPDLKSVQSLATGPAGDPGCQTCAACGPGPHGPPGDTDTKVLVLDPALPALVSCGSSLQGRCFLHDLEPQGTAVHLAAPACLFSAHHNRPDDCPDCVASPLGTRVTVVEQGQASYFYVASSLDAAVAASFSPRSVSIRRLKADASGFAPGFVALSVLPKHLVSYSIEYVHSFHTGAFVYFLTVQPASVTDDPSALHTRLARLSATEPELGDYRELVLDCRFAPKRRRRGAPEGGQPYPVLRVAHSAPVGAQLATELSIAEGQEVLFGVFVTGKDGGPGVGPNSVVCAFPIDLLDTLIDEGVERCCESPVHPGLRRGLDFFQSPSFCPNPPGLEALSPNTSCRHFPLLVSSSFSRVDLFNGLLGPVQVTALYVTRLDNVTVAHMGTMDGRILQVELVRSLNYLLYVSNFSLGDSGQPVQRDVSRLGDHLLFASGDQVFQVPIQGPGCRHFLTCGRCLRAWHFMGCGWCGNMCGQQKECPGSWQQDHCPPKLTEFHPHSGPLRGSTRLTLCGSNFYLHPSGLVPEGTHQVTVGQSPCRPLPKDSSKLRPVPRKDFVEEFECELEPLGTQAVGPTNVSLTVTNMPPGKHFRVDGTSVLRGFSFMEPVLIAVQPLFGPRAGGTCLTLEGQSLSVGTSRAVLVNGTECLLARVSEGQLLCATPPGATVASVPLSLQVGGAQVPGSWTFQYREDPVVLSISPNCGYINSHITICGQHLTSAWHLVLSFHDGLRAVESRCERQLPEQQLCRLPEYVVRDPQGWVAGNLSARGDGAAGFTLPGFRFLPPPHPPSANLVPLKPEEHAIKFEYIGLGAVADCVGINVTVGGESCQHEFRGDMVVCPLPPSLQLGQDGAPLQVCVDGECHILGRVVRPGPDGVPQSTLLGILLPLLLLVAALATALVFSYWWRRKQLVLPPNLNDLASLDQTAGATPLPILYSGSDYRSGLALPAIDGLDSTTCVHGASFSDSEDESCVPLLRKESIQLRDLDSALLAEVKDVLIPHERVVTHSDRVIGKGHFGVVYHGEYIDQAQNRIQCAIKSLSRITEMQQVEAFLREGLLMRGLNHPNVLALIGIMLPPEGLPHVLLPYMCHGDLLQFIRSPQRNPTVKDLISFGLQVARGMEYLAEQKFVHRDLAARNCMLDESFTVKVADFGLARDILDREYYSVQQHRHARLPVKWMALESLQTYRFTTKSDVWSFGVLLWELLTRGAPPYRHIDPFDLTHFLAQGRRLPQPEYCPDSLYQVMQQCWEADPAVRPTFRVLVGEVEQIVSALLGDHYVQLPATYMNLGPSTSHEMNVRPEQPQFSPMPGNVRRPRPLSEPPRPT
RSK2, sequence (P51812 whole entry): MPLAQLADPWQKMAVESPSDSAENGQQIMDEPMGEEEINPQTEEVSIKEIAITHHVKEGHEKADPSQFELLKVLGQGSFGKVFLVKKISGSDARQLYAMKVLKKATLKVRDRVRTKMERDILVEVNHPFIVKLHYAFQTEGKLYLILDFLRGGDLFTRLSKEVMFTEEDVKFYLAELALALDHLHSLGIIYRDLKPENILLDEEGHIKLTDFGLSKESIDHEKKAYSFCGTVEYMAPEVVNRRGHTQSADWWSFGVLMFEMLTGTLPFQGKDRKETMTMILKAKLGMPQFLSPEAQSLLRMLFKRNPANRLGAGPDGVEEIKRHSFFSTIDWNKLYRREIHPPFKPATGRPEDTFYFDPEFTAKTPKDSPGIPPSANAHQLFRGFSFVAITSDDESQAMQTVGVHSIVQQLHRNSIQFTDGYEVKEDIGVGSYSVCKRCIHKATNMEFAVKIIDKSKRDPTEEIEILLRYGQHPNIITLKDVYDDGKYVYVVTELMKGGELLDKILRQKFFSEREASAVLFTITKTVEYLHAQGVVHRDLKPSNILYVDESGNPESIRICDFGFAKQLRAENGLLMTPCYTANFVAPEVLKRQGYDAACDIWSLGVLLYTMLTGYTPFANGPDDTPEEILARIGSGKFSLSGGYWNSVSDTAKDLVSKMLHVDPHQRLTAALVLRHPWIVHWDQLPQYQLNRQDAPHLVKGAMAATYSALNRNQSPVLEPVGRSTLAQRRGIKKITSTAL
IGF1R, sequence (P08069 31-1367): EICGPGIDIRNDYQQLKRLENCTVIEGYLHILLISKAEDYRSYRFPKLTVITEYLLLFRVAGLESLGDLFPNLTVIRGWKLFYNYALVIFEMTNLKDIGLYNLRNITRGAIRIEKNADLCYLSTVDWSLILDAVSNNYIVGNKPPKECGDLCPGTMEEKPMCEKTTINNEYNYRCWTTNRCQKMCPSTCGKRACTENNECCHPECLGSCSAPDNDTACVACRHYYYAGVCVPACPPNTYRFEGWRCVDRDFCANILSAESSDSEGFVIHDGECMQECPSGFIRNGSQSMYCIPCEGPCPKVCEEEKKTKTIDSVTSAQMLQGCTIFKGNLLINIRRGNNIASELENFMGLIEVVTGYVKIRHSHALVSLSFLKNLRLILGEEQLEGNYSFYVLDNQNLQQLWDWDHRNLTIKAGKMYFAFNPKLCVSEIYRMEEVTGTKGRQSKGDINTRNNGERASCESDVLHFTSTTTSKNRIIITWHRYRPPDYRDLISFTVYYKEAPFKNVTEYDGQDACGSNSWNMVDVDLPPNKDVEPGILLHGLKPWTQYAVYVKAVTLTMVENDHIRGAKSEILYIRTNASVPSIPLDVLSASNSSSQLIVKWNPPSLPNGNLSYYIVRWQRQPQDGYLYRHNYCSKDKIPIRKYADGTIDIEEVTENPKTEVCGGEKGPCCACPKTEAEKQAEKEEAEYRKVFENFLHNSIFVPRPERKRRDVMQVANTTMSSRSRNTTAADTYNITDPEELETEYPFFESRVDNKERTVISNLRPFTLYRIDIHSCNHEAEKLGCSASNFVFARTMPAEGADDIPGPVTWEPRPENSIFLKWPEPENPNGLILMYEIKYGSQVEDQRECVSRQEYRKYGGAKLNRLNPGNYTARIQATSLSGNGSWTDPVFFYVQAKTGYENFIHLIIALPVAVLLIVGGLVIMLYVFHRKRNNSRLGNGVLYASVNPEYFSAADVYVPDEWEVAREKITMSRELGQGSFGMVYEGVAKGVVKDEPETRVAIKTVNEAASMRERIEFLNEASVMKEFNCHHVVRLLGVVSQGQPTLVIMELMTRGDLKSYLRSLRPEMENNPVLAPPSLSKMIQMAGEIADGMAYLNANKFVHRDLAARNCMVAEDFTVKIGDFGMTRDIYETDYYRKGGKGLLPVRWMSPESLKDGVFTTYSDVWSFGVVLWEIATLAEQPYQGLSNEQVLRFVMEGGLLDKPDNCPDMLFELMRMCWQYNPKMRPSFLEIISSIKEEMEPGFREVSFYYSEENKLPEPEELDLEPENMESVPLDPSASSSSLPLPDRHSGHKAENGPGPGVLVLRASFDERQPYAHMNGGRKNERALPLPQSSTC
c-kit, sequence (P10721 26-976): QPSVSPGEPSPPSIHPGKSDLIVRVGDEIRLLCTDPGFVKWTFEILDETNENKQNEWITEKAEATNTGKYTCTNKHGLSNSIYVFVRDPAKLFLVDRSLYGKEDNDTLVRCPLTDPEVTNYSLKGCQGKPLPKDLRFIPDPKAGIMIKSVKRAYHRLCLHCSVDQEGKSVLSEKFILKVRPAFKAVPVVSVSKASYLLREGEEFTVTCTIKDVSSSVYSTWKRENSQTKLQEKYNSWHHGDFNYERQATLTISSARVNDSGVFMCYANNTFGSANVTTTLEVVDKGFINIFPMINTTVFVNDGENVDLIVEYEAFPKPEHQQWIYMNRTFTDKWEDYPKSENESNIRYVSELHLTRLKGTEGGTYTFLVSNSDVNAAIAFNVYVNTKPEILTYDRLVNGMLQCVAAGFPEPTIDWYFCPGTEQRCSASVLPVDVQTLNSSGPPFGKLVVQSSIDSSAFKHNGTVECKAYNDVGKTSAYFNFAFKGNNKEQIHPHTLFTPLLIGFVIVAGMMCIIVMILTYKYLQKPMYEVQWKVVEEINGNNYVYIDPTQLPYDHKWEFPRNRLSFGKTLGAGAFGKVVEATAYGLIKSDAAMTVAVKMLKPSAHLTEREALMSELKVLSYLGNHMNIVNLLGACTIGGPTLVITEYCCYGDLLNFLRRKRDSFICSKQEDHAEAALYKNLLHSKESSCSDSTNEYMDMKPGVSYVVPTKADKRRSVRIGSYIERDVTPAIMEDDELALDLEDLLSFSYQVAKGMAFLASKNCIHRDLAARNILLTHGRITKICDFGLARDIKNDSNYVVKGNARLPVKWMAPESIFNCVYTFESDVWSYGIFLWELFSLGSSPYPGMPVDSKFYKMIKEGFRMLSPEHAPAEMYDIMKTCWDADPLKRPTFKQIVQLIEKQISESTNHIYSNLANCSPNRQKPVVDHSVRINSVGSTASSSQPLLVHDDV

SMILES	IC50 (MV4-11)	IC50 (K562; [1])	IC50 (K562; [2])	inhibition at 0.5 µM (c-kit)	inhibition at 0.5 µM (HIPK1)	inhibition at 0.5 µM (CDK1/cyclin E)	inhibition at 0.5 µM (BRK)	inhibition at 0.5 µM (ERBB4/HER4)	inhibition at 0.5 µM (FER)	inhibition at 0.5 µM (CDK9/cyclin K)	inhibition at 0.5 µM (JNK1)	inhibition at 0.5 µM (P38a/MAPK14)	inhibition at 0.5 µM (HCK)	inhibition at 0.5 µM (IGF1R)	inhibition at 0.5 µM (MELK)	inhibition at 0.5 µM (MST4)	inhibition at 0.5 µM (CDK9/cyclin T1)	inhibition at 0.5 µM (AKT2)	inhibition at 0.5 µM (MEK1)	inhibition at 0.5 µM (SYK)	also measured
Cc1ccc(C(=O)Nc2ccc(CN3CCN(C)CC3)c(C(F)(F)F)c2)cc1C#Cc1cnc(N)c2ccccc12 [HSN334, 3-((1-aminoisoquinolin-4-yl)ethynyl)-4-methyl-N-(4-((4-methylpiperazin-1-yl)methyl)-3-(trifluoromethyl)phenyl)benzamide]	1 nM	6 nM	6.1 ± 0.1 nM	73%	–	–	–	–	–	–	–	–	–	–	–	–	–	–	–	–	–
COc1cc2nc(N)nc(C#Cc3cc(C(=O)Nc4ccc(CN5CCN(C)CC5)c(C(F)(F)F)c4)ccc3C)c2cc1OC [HSN325]	135 nM	444 nM	44 ± 0.1 nM	–	0%	0%	0%	7%	12%	7%	0%	5%	18%	0%	0%	0%	0%	0%	2%	0%	inhibition at 0.5 µM (FYN): 10%; inhibition at 0.5 µM (CDK6/cyclin D3): 0%; inhibition at 0.5 µM (CDK4/cyclin D1): 0%; inhibition at 0.5 µM (RSK2): 0%; inhibition at 0.5 µM (RON/MST1R): 0%; inhibition at 0.5 µM (CDK2/cyclin A): 0%; inhibition at 0.5 µM (ITK): 1%
Cc1ccc(C(=O)Nc2ccc(CN3CCN(C)CC3)c(C(F)(F)F)c2)cc1C#Cc1c(N)ncc2ccc(Cl)cc12 [HSN286]	0.4 nM	–	3.5 ± 0.02 nM	61%	0%	0%	92%	71%	0%	24%	7%	81%	95%	0%	27%	0%	0%	3%	0%	0%	inhibition at 0.5 µM (FYN): 100%; inhibition at 0.5 µM (CDK6/cyclin D3): 7%; inhibition at 0.5 µM (CDK4/cyclin D1): 0%; inhibition at 0.5 µM (RSK2): 0%; inhibition at 0.5 µM (RON/MST1R): 0%; inhibition at 0.5 µM (CDK2/cyclin A): 0%; inhibition at 0.5 µM (ITK): 0%
